One experiment concerns the target CXCR4 receptor (Homo sapiens, UniProt P61073). Nature of the experiment: 384 w β-arrestin recruitment assay (Tango CXCR4-bla U2OS cells, PeproTech SDF-1α). The class given is cell-based. Further details: host or cells: Tango CXCR4-bla U2OS cells. On the procedure:
Tango™ CXCR4-bla U2OS Cells were resuspended in assay media consisting of DMEM (Corning; Corning, NY, USA) supplemented with 1% dialyzed Fetal bovine serum, 0.1 mM MEM Non-essential amino acids solution, 25 mM HEPES solution (Corning; Corning, NY, USA), 1 mM Sodium Pyruvate and 100 IU penicillin, […] streptomycin sulfate (Corning; Corning, NY, USA) at a density of 3.0 × 10^5 cells/mL. Cells suspension was dispensed at 30 μL per well into assay plate and incubated overnight in a cell culture incubator at 37 °C with 5% CO2. Following overnight incubation, LiveBlazer FRET B/G Loading Kit working reagent was prepared according to supplier guidelines and 6 μL of solution was dispensed into each well. Assay plate was covered and incubated in a dark place for two hours and Fluorescence Intensity was measured using the BMG LABTECH CLARIOstar Plus (BMG LABTECH Inc., Cary, NC, USA) according to the LiveBlazer FRET B/G Loading Kit excitation and emission measurement guidelines.

Another experiment relates to miR-15b. Nature of the experiment: miR-15b expression in human diabetic fibroblasts (real time qPCR). The class given is cell-based. Here is the method: (§1) An additional secondary screen was performed to further validate the activity of UCUF-728 as a selective CXCR4 receptor modulator. Human diabetic and non-diabetic fibroblasts were cultured with increasing concentrations of the compound. The cells were incubated for 24 h and then total cellular RNA was isolated to examine the ability of the compound to correct the abnormal expression of miR-15b, and miR-29a. We have shown that human diabetic skin has an increased miR-15b expression at the baseline compared to non-diabetic skin [7].
(§2) CEM-CCRF cells (ATCC CCL-119) were cultured in growth media consisting of RPMI 1640 (Corning; Corning NY, USA) supplemented with 10% Fetal Bovine Serum (Corning; Corning, NY, USA), and 100 IU penicillin, […] streptomycin sulfate (Corning; Corning, NY, USA). Cells were maintained in suspension and subcultured twice weekly to maintain cell densities between 0.8 × 10^6 cells/mL and 2.5 × 10^6 cells/mL to maintain exponential growth phase. […]
(§3) Total RNA was extracted with TRIzol reagent (Invitrogen, Carlsbad, CA, USA) according to the manufacturer’s established protocol. […] Quantitative PCR was performed on a BIO-RAD CFX96 according to the manufacturer’s instructions. Quantitative values of genes of interest are normalized based on U6. […]

Experiment [1] concerns diabetic wounds in Db mice. As to the kind of experiment: full-thickness excisional 8 mm wound healing in diabetic Db mice. The class given is in vivo. Here is the method:
We examined the ability of our lead compound to improve diabetic wound healing in vivo. Full-thickness excisional 8 mm wounds were created in Db mice and were immediately treated with 10 µM UCUF-728 or PBS control. We monitored wound healing over the course of 22 days. Initial wound size was calculated immediately after wounding, and wound closure was assessed over time as the percentage of initial wound area. Figure 4A depicts the wound healing effect of UCUF-728 application on the excision wound model for sequential days following injury. […] The effect of UCUF-728 treatment on angiogenesis was assessed using immunohistochemistry for the endothelial marker CD31. Representative photos of immunoperoxidase staining for CD31 at 7 days in diabetic wounds treated with PBS or UCUF-728 are shown in Figure 4C.
All animal experiments were approved by the Institutional Animal Care and Use Committee at the University of Colorado Denver—Anschutz Medical Campus, and experimental protocols followed the guidelines described in the NIH Guide for the Care and Use of Laboratory Animals. In these experiments, we used 10-week-old, female, genetically diabetic C57BKS.Cg-m/Leprdb/J (Db) mice and heterozygous, non-diabetic (non-Db), age-matched female controls from the Jackson Laboratory (Bar Harbor, ME, USA). Mice were anesthetized with inhaled isoflurane. Each mouse was shaved and depilated before wounding. The dorsal skin was swabbed with alcohol and Betadine (Purdue Pharma, Stamford, CT, USA). Each mouse received a single, full-thickness dorsal wound (including panniculus carnosum) with an 8-mm punch biopsy (Miltex Inc., York, PA, USA). After wounding, a Hamilton syringe was used to deliver 50 μL of either 10 uM CAG1 or PBS, as a control. Ten […] were injected intradermally at 12, 3, 6 and 9 o’clock and at the wound base. All wounds were dressed with Tegaderm (3M, St. Paul, MN, USA), which was subsequently removed on postoperative day 2. Postoperatively, the mice received a subcutaneous injection of an analgesic, Banamine (Schering-Plough Animal Health Corp., Union, NJ, USA). A full-thickness skin sample, centered on the wound, was harvested 3 and 7 days after surgery (n = 5 per timepoint).

The test system of the next experiment is miR-29a. Nature of the experiment: miR-29a expression in human diabetic fibroblasts (real time qPCR). The class given is cell-based. To be noted: 24 h. On the procedure:
as §1, §2, §3

Structures are written as SMILES.

Chain of CXCR4 receptor (P61073 whole entry): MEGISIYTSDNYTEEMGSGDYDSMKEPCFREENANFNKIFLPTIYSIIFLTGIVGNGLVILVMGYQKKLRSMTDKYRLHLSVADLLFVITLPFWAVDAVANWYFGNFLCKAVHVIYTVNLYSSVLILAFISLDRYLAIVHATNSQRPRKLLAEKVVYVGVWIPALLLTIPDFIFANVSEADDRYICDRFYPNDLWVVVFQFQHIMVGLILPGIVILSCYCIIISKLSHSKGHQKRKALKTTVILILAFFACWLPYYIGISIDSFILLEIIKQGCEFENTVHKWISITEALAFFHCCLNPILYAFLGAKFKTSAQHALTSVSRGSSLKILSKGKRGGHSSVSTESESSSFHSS

On to `COc1ccc(OC)c(NS(=O)(=O)c2ccc(-c3cnc(C4CC4)o3)cc2)c1` [Compound 19], for which the EC50 on CXCR4 receptor was found to be 500 nM. This compound also showed an Emax at CXCR4 receptor (U2OS) of 30%. In addition, the “lowest concentration with potent suppression of miR-15b expression” value with miR-15b turned out to be 0.1 µM. Besides, the miR-15b expression entry in the experiment with miR-15b (24 h) is reported as “decreased the expression of miR-15b”. The “time of full closure” value in experiment [1] (Db mice, 8 mm wound, 10 µM intradermal at wounding, PBS 22 days) is listed as 14 days. In addition, in experiment [1] (Db wounds, post-injury day 6, vs PBS), the wound surface area entry is listed as “decrease in the wound surface area”. In experiment [1] (diabetic mice, vs PBS), the “reduction of wound closure time” value was determined as 36%. Also, the “number of vessels (CD31 staining)” value in experiment [1] (diabetic wounds, 7 days, vs PBS) is recorded as “significant increase in the number of vessels”. Moreover, the miR-29a expression result in the experiment with miR-29a was “significant decrease in the miR-29a expression level”.
